Where two headings read alike, the source gives them in different places.
Columns and labels:
[1] = target: T1, CETP (Homo sapiens, UniProt P11597); experiment: CETP-SPA test; format: biochemical; set-up: are added to 42 μl (86% v/v) of human plasma (Sigma P9523); tissue Sigma P9523; host or cells: human plasma; details: section (b), Example 1 = formula (Ib); 37° C., 18 h
T1 sequence (P11597 18-493): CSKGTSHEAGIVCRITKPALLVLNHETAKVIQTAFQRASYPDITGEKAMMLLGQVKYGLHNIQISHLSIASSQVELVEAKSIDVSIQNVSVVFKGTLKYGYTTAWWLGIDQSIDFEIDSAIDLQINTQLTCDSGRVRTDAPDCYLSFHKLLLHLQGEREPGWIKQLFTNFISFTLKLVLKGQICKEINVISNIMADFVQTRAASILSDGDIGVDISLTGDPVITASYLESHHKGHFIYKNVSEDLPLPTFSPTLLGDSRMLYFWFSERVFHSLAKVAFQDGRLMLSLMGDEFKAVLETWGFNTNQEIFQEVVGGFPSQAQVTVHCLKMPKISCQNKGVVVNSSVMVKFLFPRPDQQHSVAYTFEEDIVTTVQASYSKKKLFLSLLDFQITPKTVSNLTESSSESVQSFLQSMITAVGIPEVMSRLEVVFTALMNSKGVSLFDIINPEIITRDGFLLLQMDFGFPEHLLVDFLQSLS
Procedure: 50 ml of fresh human EDTA plasma is adjusted to a density of 1.12 using NaBr and centrifuged at 4° C. in a Ty 65 rotor at 50 000 rpm for 18 h. The upper phase is used for the obtainment of cold LDL. […]
For testing of the CETP activity, the transfer of ^3H-cholesterol ester from human HD lipoproteins to biotinylated LD lipoproteins is measured. The reaction is ended by addition of streptavidin-SPA® beads (Amersham) and the transferred radioactivity is determined directly in a liquid scintillation counter. […]

[2] = target: T1, CETP; experiment: Ex vivo activity on transgenic hCETP mice (serum CETP activity); format: in vivo; set-up: from tissue; host or cells: serum of transgenic hCETP mice (Dinchuk et al.); details: mouse, po
Procedure: 10 μl of buffer and 2 μl of serum are added to 80 μl of test mix, and the mixture is incubated at 37° C. for 4 h.
The change in the fluorescence at 485/535 nm is a measure for the CE transfer; the inhibition of the transfer is comparison to the control batch without substance is determined.
To test for CETP-inhibitory activity, the substances are administered orally using a stomach tube to transgenic hCETP mice bred in-house [Dinchuk et al. BBA 1295-301 (1995)]. To this end, male animals are randomly assigned to groups having an equal number of animals, as a rule n=4, one day before the start of the experiment. Before administration of the substance, blood is taken from each mouse by puncture of the retro-orbital venous plexus for the determination of its basal CETP activity in the serum (T1). The test substance is then administered to the animals using the stomach tube. At specific times after administration of the test substance, blood is taken from the animals by puncture a second time (T2), in general 16 or 24 h after substance administration, but if appropriate this can also be carried out at another time.
In order to be able to assess the inhibitory activity of a substance, for each time, i.e. 16 or 24 hours, a corresponding control group is employed whose animals only receive the formulating agent without substance. In the control animals, the second blood sampling per animal is carried out as in the substance-treated animals in order to be able to determine the change in the CETP activity without inhibitor over the corresponding experimental time interval (16 or 24 h).
After termination of the clotting, the blood samples are centrifuged and the serum is removed by pipette. For the determination of the CETP activity, the cholesteryl ester transport over 4 h is determined. To this end, in general 2 μl of serum are employed in the test batch and the test is carried out as described under B-I.2.3.
The differences in the cholesteryl ester transport [pM CE/h (T2)−pM CE/h (T1)] are calculated for each animal and averaged in the groups. A substance which at one of the times reduces the cholesteryl ester transport by >20% is regarded as active.
The change in the fluorescence at 485/535 nm is a measure for the CE transfer; the inhibition of the transfer in comparison to the control batch without substance is determined.
To test for CETP-inhibitory activity, the substances are administered orally using a stomach tube to transgenic hCETP mice bred in-house [Dinchuk et al., BBA, 1295-1301 (1995)]. To this end, male animals are randomly assigned to groups having an equal number of animals, as a rule n=4, one day before the start of the experiment. […]

[3] = target: T1, CETP; experiment: CETP fluorescence test with enriched CETP; format: biochemical; set-up: tissue Sigma P9523; host or cells: human plasma; details: section (b), Example 1 = formula (Ib); enriched CETP from human plasma, 37° C., 4 hours
Procedure: CETP is obtained in partially purified form from human plasma by differential centrifugation and column chromatography and used for the test. To this end, human plasma is adjusted to a density of 1.21 g per ml using NaBr and centrifuged at 4° C. at 50 000 rpm for 18 h. The bottom fraction (d>1.21 g/ml) is applied to a Sephadex® Phenyl-Sepharose 4B (Pharmacia) column, washed with 0.15 M NaCl/0.001 M tris-HCl pH 7.4 and then eluted with distilled water. The CETP-active fractions are pooled, dialysed against 50 mM sodium acetate pH 4.5 and applied to a CM-Sepharose® column (Pharmacia). The mixture is then eluted using a linear gradient (0-1 M NaCl). The pooled CETP fractions are dialysed against 10 mM tris/HCl pH 7.4 and then further purified by chromatography on a Mono Q® column (Pharmacia).
Measurement of the CETP-catalysed transfer of a fluorescent cholesterol ester between liposomes [modified according to the procedure of Bisgaier et al., J. Lipid Res. 34, 1625 (1993)]: […]
The change in the fluorescence at 485/535 nm is a measure of the CE transfer; the inhibition of the transfer in comparison to the control batch without substance is determined. […]

[4] = target: T1, CETP; experiment: CETP fluorescence test with human plasma; format: biochemical; set-up: tissue Sigma P9523; host or cells: human plasma; details: section (b), Example 1 = formula (Ib), 37° C., 24 h
Procedure: For the production of the donor liposomes, 1 mg of cholesteryl 4,4-difluoro-5,7-dimethyl-4-bora-3a,4a-diaza-s-indacene-3-dodecanoate (cholesteryl BODIPY® FL C12, Molecular Probes) is dissolved in 600 μl of dioxane with 5.35 mg of triolein and 6.67 mg of phosphatidylcholine with gentle warming in an ultrasonic bath and this solution is added very slowly with ultrasonication to 63 ml of 50 mM tris/HCl, 150 mM NaCl, 2 mM EDTA buffer pH 7.3 at room temperature. The suspension is then ultrasonicated under an N2 atmosphere for 30 minutes in the Branson ultrasonic bath at about 50 watts, the temperature being kept at about 20° C.
6 μl (12% v/v) of donor liposomes and 1 μl (2% v/v) of a solution of the substance to be investigated in DMSO are added to 42 μl (86% v/v) of human plasma (Sigma P9523), and the mixture is incubated at 37° C. for 24 h.
The change in the fluorescence at 510/520 nm (gap width 2.5 nm) is a measure of the CE transfer; the inhibition of the transfer in comparison to the control batch without substance is determined. […]

IC50 [3] [nM]	IC50 [4] [nM]	Structure (SMILES)	IC50 [1] [nM]	inhibition at 3 mg/kg ([2]; section (a), Example 1 = formula (Ia), 16 h after administration, read-out: % inhibition at 3 mg/kg, 16 h) [%]	inhibition at 3 mg/kg ([2]; section (a), Example 1 = formula (Ia), 24 h after administration, read-out: % inhibition at 3 mg/kg, 24 h) [%]	inhibition at 3 mg/kg ([2]; section (b), Example 1 = formula (Ib), 16 h after administration, read-out: % inhibition at 3 mg/kg, 16 h) [%]	inhibition at 3 mg/kg ([2]; section (b), Example 1 = formula (Ib), 24 h after administration, read-out: % inhibition at 3 mg/kg, 24 h) [%]
–	–	CC1(C)Cc2nc(C3CCCC3)c([C@@H](F)c3ccc(C(F)(F)F)cc3)c(C3CCCCC3)c2[C@@H](O)C1 [Example 1]	12	50	24	49	39
25	84	CC(C)c1nc2c(c(C3CCCC3)c1[C@@H](F)c1ccc(C(F)(F)F)cc1)[C@@H](O)CC(C)(C)C2 [Example 1]	–	–	–	–	–
